Measurements as given in ChEMBL document CHEMBL1201862, “PubChem BioAssay data set” (2004).
Active and inactive are the calls of the source.

How the values were obtained:
[1] = biological target: DNA dC->dU-editing enzyme APOBEC-3A (Homo sapiens, UniProt P31941); assay: SAR analysis of small molecule inhibitors of APOBEC3A DNA Deaminase via a fluorescence-based single-stranded DNA deaminase assay.; type: functional; settings: read-out: IC50_Mean
[2] = biological target: DNA dC->dU-editing enzyme APOBEC-3G (Homo sapiens, UniProt Q9HC16); assay: inhibition of APOBEC3G ssDNA deamination – biochemical, fluorescence, single-stranded DNA substrate, SAR follow-up (AID 602136); type: functional; settings: read-out: IC50_Mean
Sequence of DNA dC->dU-editing enzyme APOBEC-3G (Q9HC16 whole entry): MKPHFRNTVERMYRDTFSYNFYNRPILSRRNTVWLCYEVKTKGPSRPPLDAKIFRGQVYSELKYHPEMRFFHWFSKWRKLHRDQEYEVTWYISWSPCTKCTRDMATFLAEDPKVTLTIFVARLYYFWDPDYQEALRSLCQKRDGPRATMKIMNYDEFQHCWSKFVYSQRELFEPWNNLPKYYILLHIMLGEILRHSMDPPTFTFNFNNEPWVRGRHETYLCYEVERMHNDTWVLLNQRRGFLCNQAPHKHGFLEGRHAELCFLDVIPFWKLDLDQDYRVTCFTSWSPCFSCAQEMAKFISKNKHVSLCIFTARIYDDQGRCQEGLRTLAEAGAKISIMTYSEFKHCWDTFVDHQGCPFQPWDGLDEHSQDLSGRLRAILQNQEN

[3] = biological target: Mitochondrial peptide methionine sulfoxide reductase (Bos taurus, UniProt P54149); assay: Absorbance-based biochemical high throughput dose response assay for activators of Methionine sulfoxide reductase A (MsrA).; type: functional
Sequence of Mitochondrial peptide methionine sulfoxide reductase (P54149 whole entry): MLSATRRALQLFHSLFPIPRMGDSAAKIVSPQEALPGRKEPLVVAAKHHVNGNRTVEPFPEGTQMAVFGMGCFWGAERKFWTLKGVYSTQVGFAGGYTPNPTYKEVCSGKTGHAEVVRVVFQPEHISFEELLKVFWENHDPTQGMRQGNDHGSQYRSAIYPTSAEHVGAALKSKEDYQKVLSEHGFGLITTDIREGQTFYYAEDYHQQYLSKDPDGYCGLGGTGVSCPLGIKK

[4] = viability loss in THP-1 monocytes – THP-1 cells, cytotoxicity control for Vif-APOBEC3G degradation inhibitor project, dose response (AID 1117359); type: functional; settings: THP-1
[5] = biological target: T1, Low molecular weight phosphotyrosine protein phosphatase (Homo sapiens, UniProt P24666); type: functional; settings: read-out: IC50_Mean
T1 sequence (P24666 whole entry): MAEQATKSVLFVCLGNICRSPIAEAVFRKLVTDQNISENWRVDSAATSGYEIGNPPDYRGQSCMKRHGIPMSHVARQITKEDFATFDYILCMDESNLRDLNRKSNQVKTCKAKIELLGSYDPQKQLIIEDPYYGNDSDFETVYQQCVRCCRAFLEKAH

[6] = biological target: T1, Low molecular weight phosphotyrosine protein phosphatase; type: functional; settings: read-out: IC50_Mean; remark: listed apart in the source
[7] = biological target: T2, Heat shock factor protein 1 (Mus musculus, UniProt P38532); assay: decrease of HSF1-responsive luciferase luminescence – cell-based, NIH3T3, dose retest, confirmation (AID 2382); type: functional;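 also: NIH3T3 fibroblasts with HSF1-driven luciferase reporter stressed by proteasome inhibitor MG132; luminescence from HSF1-driven luciferase expression after 8 hours of MG132 stress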
T2 sequence (P38532 whole entry): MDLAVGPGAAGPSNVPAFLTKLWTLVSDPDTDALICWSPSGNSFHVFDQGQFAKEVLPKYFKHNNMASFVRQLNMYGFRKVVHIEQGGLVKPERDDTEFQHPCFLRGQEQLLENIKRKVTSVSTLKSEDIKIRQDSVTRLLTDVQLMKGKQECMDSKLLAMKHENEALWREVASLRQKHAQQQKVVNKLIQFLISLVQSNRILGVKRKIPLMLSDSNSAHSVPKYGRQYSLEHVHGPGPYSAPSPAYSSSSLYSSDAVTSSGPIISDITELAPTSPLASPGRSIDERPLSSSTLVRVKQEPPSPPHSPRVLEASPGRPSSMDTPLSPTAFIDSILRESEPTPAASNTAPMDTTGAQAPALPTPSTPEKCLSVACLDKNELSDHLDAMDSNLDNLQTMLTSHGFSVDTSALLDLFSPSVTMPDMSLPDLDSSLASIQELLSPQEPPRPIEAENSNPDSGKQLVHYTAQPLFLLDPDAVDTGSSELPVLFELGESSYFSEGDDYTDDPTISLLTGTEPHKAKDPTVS

[8] = bead-based luminescence quenchers, dual-tagged ARNT – biochemical, AlphaScreen, cherry-pick, artefact control for ARNT-TACC3 interaction inhibitor project, dose response (AID 651705); type: functional;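 also: AlphaScreen bead proximity signal that flags compounds interfering with the detection technology; potency reflects signal decrease which marks the compound as an assay artifact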
[9] = inhibition of ARNT PAS-B/TACC3 complex formation – biochemical, AlphaScreen, cherry-picked samples, confirmation (AID 651703); type: functional, Homo sapiens;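 also: His-tagged ARNT PAS-B domain paired with GST-TACC3 E629A dimer coactivator fragment; potency of inhibitors that break up the complex and lower AlphaScreen signal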
[10] = biological target: Ras and Rab interactor 1/Tyrosine-protein kinase ABL1 (Homo sapiens, UniProt P00519+Q13671); type: functional;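 also: biochemical TR-FRET dose-response test measuring inhibition of binding between Rin1 and Abl proteins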
Sequence of Ras and Rab interactor 1/Tyrosine-protein kinase ABL1 (P00519 whole entry): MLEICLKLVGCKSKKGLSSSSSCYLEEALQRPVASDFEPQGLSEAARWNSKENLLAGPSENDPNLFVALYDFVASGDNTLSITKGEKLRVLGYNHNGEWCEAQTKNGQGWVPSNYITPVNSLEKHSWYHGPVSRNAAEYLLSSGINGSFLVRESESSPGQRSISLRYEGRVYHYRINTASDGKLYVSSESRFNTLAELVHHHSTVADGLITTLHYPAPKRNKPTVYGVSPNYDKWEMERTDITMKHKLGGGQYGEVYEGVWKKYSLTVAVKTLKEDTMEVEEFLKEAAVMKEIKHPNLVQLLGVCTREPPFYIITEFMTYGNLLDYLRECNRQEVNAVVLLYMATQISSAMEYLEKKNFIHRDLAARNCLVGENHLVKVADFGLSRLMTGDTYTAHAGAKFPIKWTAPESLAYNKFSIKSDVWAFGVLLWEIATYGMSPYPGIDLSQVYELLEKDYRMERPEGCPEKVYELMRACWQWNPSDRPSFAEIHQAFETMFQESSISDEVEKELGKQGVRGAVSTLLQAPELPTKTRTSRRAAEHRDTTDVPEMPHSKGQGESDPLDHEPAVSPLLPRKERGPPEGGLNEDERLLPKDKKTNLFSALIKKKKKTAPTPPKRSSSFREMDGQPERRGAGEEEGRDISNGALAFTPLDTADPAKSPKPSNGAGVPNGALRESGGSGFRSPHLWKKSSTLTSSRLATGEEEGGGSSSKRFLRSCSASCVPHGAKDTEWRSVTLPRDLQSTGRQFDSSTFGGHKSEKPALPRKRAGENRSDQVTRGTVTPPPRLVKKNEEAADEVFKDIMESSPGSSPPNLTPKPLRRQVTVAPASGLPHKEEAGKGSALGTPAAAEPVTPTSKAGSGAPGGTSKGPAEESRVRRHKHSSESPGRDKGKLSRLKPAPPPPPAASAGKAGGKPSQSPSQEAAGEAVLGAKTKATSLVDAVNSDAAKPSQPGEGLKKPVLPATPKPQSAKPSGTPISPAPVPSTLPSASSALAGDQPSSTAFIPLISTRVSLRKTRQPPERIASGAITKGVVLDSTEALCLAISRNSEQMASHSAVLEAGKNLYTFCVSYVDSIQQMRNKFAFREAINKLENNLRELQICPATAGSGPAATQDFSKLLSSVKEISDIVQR
Sequence of Ras and Rab interactor 1/Tyrosine-protein kinase ABL1 (Q13671 whole entry): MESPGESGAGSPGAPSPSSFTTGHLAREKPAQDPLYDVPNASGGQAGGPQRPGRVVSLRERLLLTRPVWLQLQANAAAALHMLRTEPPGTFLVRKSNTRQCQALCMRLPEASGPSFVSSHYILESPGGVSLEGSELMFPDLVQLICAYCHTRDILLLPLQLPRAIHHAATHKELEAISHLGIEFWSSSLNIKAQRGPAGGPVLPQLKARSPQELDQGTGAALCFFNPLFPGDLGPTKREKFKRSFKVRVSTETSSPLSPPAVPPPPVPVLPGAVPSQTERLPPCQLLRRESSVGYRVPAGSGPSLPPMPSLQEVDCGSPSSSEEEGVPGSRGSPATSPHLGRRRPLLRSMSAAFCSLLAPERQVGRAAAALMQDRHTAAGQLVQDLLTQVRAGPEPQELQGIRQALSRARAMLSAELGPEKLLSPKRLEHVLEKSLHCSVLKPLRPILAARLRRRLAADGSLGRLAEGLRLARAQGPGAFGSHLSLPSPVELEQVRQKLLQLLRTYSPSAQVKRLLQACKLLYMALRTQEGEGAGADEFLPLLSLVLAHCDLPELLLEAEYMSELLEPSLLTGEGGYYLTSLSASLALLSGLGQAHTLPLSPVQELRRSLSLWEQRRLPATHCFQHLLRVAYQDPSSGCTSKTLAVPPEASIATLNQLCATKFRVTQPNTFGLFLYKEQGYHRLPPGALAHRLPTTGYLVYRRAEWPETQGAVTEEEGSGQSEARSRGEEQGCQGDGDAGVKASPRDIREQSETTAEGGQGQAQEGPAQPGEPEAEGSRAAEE

[11] = biological target: T3, Small ubiquitin-related modifier 1 (Homo sapiens, UniProt P63165); assay: SUMO1 protein-protein binding blockers, potency – biochemical, FRET, dose response (AID 624383); type: functional; settings: read-out: IC50_Mean
T3 sequence (P63165 whole entry, the tested form may be a part): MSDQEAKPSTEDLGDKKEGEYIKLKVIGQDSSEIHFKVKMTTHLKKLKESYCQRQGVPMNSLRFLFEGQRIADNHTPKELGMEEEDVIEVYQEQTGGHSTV

[12] = biological target: T4, Carboxy-terminal domain RNA polymerase II polypeptide A small phosphatase 1 (Homo sapiens, UniProt Q9GZU7); assay: CTDSP1 inhibitors, concentration-response, biochemical, absorbance readout, ultra-high-throughput screen actives (AID 540297); type: functional
T4 sequence (Q9GZU7 whole entry): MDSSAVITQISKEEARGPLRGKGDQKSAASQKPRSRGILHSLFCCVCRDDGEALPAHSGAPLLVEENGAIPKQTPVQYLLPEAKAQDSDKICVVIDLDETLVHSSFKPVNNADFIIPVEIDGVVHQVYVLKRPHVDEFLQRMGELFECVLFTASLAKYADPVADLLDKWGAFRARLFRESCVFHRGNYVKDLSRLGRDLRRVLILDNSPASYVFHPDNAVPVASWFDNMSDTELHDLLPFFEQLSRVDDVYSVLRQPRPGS

[13] = biological target: T5, RNA-binding protein pos-1 (Caenorhabditis elegans, UniProt G5EF15); assay: disruptors of C. elegans POS-1 RNA interaction – biochemical, fluorescence polarization, dose response (AID 1964);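 also: purified POS-1 fused to maltose binding protein made in E. coli; potency of compounds blocking POS-1 binding to fluorescent RNA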
T5 sequence (G5EF15 whole entry): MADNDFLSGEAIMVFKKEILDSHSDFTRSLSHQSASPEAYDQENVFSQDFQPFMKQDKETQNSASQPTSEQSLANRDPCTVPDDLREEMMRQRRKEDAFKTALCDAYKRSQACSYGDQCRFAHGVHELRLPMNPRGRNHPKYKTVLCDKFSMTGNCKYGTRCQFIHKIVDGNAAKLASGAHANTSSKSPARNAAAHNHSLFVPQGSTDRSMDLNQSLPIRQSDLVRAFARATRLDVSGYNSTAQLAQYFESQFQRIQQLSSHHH

[14] = biological target: T3, Small ubiquitin-related modifier 1; assay: SUMO1 protein interaction blockers, potency – biochemical, fluorescence polarization, uHTS hits, dose response (AID 624382); type: functional; settings: read-out: IC50_Mean
[15] = biological target: T6, Zinc finger protein mex-5 (Caenorhabditis elegans, UniProt Q9XUB2); assay: potency of MEX-5 RNA-binding blockers – biochemical, C. elegans, fluorescence polarization, dose response (AID 1960)
T6 sequence (Q9XUB2 whole entry): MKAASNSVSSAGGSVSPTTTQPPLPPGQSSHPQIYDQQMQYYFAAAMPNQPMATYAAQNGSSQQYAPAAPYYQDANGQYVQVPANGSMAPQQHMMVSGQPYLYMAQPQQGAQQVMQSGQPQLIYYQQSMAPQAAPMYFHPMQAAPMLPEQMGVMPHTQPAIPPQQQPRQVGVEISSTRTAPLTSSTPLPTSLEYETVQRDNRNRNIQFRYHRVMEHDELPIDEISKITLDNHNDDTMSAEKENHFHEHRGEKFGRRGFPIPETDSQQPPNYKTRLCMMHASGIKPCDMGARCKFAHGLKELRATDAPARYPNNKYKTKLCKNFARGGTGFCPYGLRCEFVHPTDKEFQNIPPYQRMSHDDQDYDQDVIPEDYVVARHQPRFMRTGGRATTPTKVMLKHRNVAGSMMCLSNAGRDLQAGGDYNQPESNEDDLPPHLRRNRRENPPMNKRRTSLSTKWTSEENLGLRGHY

Sequence of DNA dC->dU-editing enzyme APOBEC-3A (P31941 whole entry): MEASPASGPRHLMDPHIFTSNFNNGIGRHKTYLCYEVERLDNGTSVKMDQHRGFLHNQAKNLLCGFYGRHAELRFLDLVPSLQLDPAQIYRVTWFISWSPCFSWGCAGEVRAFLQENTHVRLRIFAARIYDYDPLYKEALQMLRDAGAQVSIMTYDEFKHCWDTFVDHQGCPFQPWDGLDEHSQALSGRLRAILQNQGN

With `O=C(CSc1nnc2scc(-c3ccccc3)n12)Nc1ccccc1F` the IC50 [1] was > 99 µM (inactive) and the IC50 [2] was > 99 µM (inactive).
With `CCCn1c(=O)c2ccccc2n2c(SCC(=O)NCc3ccccc3)nnc12` the IC50 [1] was > 99 µM (inactive) and the IC50 [2] was > 99 µM (inactive).
With `O=[N+]([O-])c1cc(Br)c(O)c(/C=N/c2ccc(N3CCOCC3)cc2)c1` the EC50 [3] was > 104 µM (inactive) and the CC50 [4] was > 40 µM (active).
For `CCOc1ccccc1Nc1nc(Cl)nc(Nc2ccccc2OCC)n1`, the IC50 [1] was > 99 µM (inactive) and the IC50 [2] was > 99 µM (inactive).
For `COCCNc1nc(NCc2ccc(NC(C)=O)cc2)c2sccc2n1`, the IC50 [5] was 15.4 µM (active) and the IC50 [6] was 17.5 µM (active).
With `O=C(CN(Cc1ccccc1Cl)S(=O)(=O)c1ccc(Cl)cc1)N/N=C/c1ccc(C(=O)O)cc1` the EC50 [7] was > 195 µM (not active), the AC50 [8] was 84 µM (active) and the AC50 [9] was 78.3 µM (active).
With `C[C@]12CC[C@H](O)C[C@@H]1CC(=O)[C@@H]1[C@@H]2CC[C@]2(C)C(=O)CC[C@@H]12` the IC50 [10] was 33.8 µM (inactive).
In the case of `C=CC1=C(C(=O)O)N2C(=O)[C@@H](NC(=O)/C(=N\O)c3csc(N)n3)[C@H]2SC1` (stereo in doubt), the IC50 [5] is reported as 21.5 µM (inactive), the IC50 [11] is reported as 6.25 µM (active) and the IC50 [12] is reported as 4.48 µM (active). For the same molecule, the EC50 [13] was 49.8 µM (active), the IC50 [14] was > 66.6 µM (inactive) and the IC50 [6] was 19.6 µM (active). The EC50 [15] was 33.3 µM (active).
